In PubChem BioAssay AID330 (DTP/NCI, 2004):
Where “and” joins values, the source holds several entries; their conditions need not be identical. Equal values may be shown once. Toxic doses and inconclusive results are not listed.

Test system: P388 leukemia ip, CD2F1 mice, survival T/C
Assay: NCI In Vivo Anticancer Drug Screen. Data for tumor model P388 Leukemia (intraperitoneal) in CD2F1 (CDF1) mice
Conditions: endpoint: median survival time, higher = longer survival
How it was run: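 Mice carrying the transplanted tumor received test compound or vehicle. Survival was recorded in each group, and the value is the treated-group measurement divided by that of the vehicle-treated control group.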

[1] = dose: 12.5 mg/kg/injection, schedule: Q01DX009 (ip), vehicle: saline
[2] = dose: 25.0 mg/kg/injection, schedule: Q01DX009 (ip), vehicle: saline
[3] = dose: 50.0 mg/kg/injection, schedule: Q01DX009 (ip), vehicle: saline
[4] = dose: 100.0 mg/kg/injection, schedule: Q01DX009 (ip), vehicle: saline
[5] = dose: 200.0 mg/kg/injection, schedule: Q01DX009 (ip), vehicle: saline
[6] = dose: 50.0 mg/kg/injection, schedule: Q01DX009 (ip), vehicle: saline with Tween-80
[7] = dose: 100.0 mg/kg/injection, schedule: Q01DX009 (ip), vehicle: saline with Tween-80
[8] = dose: 60.0 mg/kg/injection, schedule: Q01DX005 (ip), vehicle: saline with Tween-80
[9] = dose: 120.0 mg/kg/injection, schedule: Q01DX005 (ip), vehicle: saline with Tween-80
[10] = dose: 240.0 mg/kg/injection, schedule: Q01DX005 (ip), vehicle: saline with Tween-80
[11] = dose: 50.0 mg/kg/injection, schedule: Q01DX005 (ip), vehicle: saline with Tween-80
[12] = dose: 100.0 mg/kg/injection, schedule: Q01DX005 (ip), vehicle: saline with Tween-80
[13] = dose: 200.0 mg/kg/injection, schedule: Q01DX005 (ip), vehicle: saline with Tween-80
[14] = dose: 50.0 mg/kg/injection, schedule: Q01DX005 (ip), vehicle: Klucel (hydroxypropylcellulose) (HPC)
[15] = dose: 100.0 mg/kg/injection, schedule: Q01DX005 (ip), vehicle: Klucel (hydroxypropylcellulose) (HPC)
[16] = dose: 200.0 mg/kg/injection, schedule: Q01DX009 (ip), vehicle: saline with Tween-80

## O=C(CCN1CCOCC1)c1ccccc1
[1]
  T/C: 100 % of control
[2]
  T/C: 101 % of control
[3]
  T/C: 100 % of control
[4]
  T/C: 104 % of control
[5]
  T/C: 103 % of control

## O=C(Nc1ccc(C2=NCCN2)cc1)Nc1cccc(NC(=O)Nc2cccc(C3=NCCN3)c2)c1
dose: 0.75 mg/kg/injection, schedule: Q04DX003 (ip), vehicle: saline with Tween-80
  T/C: 104 % of control
dose: 1.5 mg/kg/injection, schedule: Q04DX003 (ip), vehicle: saline with Tween-80
  T/C: 118 % of control
dose: 8.0 mg/kg/injection, schedule: Q01DX009 (ip), vehicle: saline with Tween-80
  T/C: 163 % of control
dose: 12.0 mg/kg/injection, schedule: Q01DX009 (ip), vehicle: saline with Tween-80
  T/C: 254 % of control
dose: 12.5 mg/kg/injection, schedule: Q04DX003 (ip), vehicle: saline with Tween-80
  T/C: 150 % of control
dose: 18.0 mg/kg/injection, schedule: Q01DX009 (ip), vehicle: saline with Tween-80
  T/C: 272 % of control
dose: 100.0 mg/kg/injection, schedule: Q04DX003 (ip), vehicle: saline
  T/C: 104 % of control

## CCNC(=S)N=Nc1c(O)[nH]c2ccccc12
[1]
  T/C: 90 % of control
[2]
  T/C: 89 % of control
[3]
  T/C: 88 % of control and 89 % of control

## O=C(Cl)c1ccccc1Sc1ccccc1
dose: 25.0 mg/kg/injection, schedule: Q01DX009 (ip), vehicle: saline with Tween-80
  T/C: 95 % of control
dose: 25.0 mg/kg/injection, schedule: Q04DX003 (ip), vehicle: saline with Tween-80
  T/C: 100 % of control
[6]
  T/C: 90 % of control
dose: 50.0 mg/kg/injection, schedule: Q04DX003 (ip), vehicle: saline with Tween-80
  T/C: 100 % of control
[7]
  T/C: 100 % of control
dose: 100.0 mg/kg/injection, schedule: Q04DX003 (ip), vehicle: saline with Tween-80
  T/C: 100 % of control

## COC(=O)CC1(C(=O)OC)C2=C(c3ccccc3CC2)N2CCCC21 (stereo unspecified)
dose: 11.25 mg/kg/injection, schedule: Q01DX009 (ip), vehicle: Klucel (hydroxypropylcellulose) (HPC)
  T/C: 110 % of control
dose: 22.5 mg/kg/injection, schedule: Q01DX009 (ip), vehicle: Klucel (hydroxypropylcellulose) (HPC)
  T/C: 110 % of control
dose: 45.0 mg/kg/injection, schedule: Q01DX009 (ip), vehicle: Klucel (hydroxypropylcellulose) (HPC)
  T/C: 102 % of control
dose: 90.0 mg/kg/injection, schedule: Q01DX009 (ip), vehicle: Klucel (hydroxypropylcellulose) (HPC)
  T/C: 112 % of control

## O=C(Nc1cc(-c2ccccc2)[nH]n1)c1ccccc1
[8]
  T/C: 103 % of control
[9]
  T/C: 106 % of control
[10]
  T/C: 100 % of control

## CCC(c1ccc(OCCS(=O)(=O)Oc2ccccc2)cc1)C(CC)c1ccc(OCCS(=O)(=O)Oc2ccccc2)cc1 (stereo unspecified)
dose: 100.0 mg/kg/injection, schedule: Q04DX003 (ip), vehicle: suspension in saline
  T/C: 99 % of control
dose: 200.0 mg/kg/injection, schedule: Q04DX003 (ip), vehicle: suspension in saline
  T/C: 98 % of control
dose: 400.0 mg/kg/injection, schedule: Q04DX003 (ip), vehicle: suspension in saline
  T/C: 98 % of control

## CCNC(=S)N/N=C(/c1ccccc1)c1ccccn1
dose: 50.0 mg/kg/injection, schedule: Q01DX009 (ip), vehicle: Klucel (hydroxypropylcellulose) (HPC)
  T/C: 105 % of control
dose: 100.0 mg/kg/injection, schedule: Q01DX009 (ip), vehicle: Klucel (hydroxypropylcellulose) (HPC)
  T/C: 95 % of control
dose: 200.0 mg/kg/injection, schedule: Q01DX009 (ip), vehicle: Klucel (hydroxypropylcellulose) (HPC)
  T/C: 115 % of control

## COc1ccc(C(C)c2cc3c(cc2OCC(=O)O)OCO3)cc1 (stereo unspecified)
[11]
  T/C: 105 % of control
[12]
  T/C: 88 % of control
[13]
  T/C: 90 % of control

## COC(=O)CC1(C(=O)OC)c2sc(C(C)C)cc2N2CCCC21 (stereo unspecified)
dose: 10.0 mg/kg/injection, schedule: Q01DX009 (ip), vehicle: Klucel (hydroxypropylcellulose) (HPC)
  T/C: 97 % of control
dose: 20.0 mg/kg/injection, schedule: Q01DX009 (ip), vehicle: Klucel (hydroxypropylcellulose) (HPC)
  T/C: 93 % of control
dose: 40.0 mg/kg/injection, schedule: Q01DX009 (ip), vehicle: Klucel (hydroxypropylcellulose) (HPC)
  T/C: 93 % of control
dose: 80.0 mg/kg/injection, schedule: Q01DX009 (ip), vehicle: Klucel (hydroxypropylcellulose) (HPC)
  T/C: 91 % of control

## C[N+](C)(C)CCCCCCN
[3]
  T/C: 102 % of control
[4]
  T/C: 97 % of control

## CCN(CC)CC(O)c1cc(-c2ccccc2)nc2ccc(OC)cc12 (stereo unspecified)
[14]
  T/C: 100 % of control
[15]
  T/C: 92 % of control

## CCN(CC)CCCNCc1cc(-c2ccccc2)nc2cc(Cl)ccc12
[11]
  T/C: 102 % of control
[12]
  T/C: 100 % of control
[13]
  T/C: 100 % of control

## COc1ccc(C(Br)C(C)Br)cc1 (stereo unspecified)
[6]
  T/C: 104 % of control
[7]
  T/C: 90 % of control
[16]
  T/C: 95 % of control

## NP1(Oc2ccc(F)cc2)=NP(N)(Oc2ccc(F)cc2)=NP(Oc2ccc(F)cc2)(Oc2ccc(F)cc2)=N1 (stereo unspecified)
[8]
  T/C: 90 % of control
[9]
  T/C: 96 % of control
[10]
  T/C: 89 % of control

## CCCCCOC(=O)CN(CC(=O)OCCCCC)c1ccc(C=O)cc1
dose: 25.0 mg/kg/injection, schedule: Q04DX003 (ip), vehicle: other
  T/C: 95 % of control
dose: 50.0 mg/kg/injection, schedule: Q04DX003 (ip), vehicle: other
  T/C: 100 % of control
dose: 100.0 mg/kg/injection, schedule: Q04DX003 (ip), vehicle: other
  T/C: 100 % of control

## N#C/C(=C\c1ccccc1)c1ccc(Cl)cc1
[6]
  T/C: 105 % of control and 97 % of control
[7]
  T/C: 106 % of control and 91 % of control
[16]
  T/C: 113 % of control and 96 % of control
dose: 400.0 mg/kg/injection, schedule: Q01DX009 (ip), vehicle: saline with Tween-80
  T/C: 103 % of control and 97 % of control

## c1ccc(CNCc2ccccc2)cc1
dose: 50.0 mg/kg/injection, schedule: Q04DX003 (ip), vehicle: Klucel (hydroxypropylcellulose) (HPC)
  T/C: 95 % of control
dose: 100.0 mg/kg/injection, schedule: Q04DX003 (ip), vehicle: Klucel (hydroxypropylcellulose) (HPC)
  T/C: 95 % of control
dose: 200.0 mg/kg/injection, schedule: Q04DX003 (ip), vehicle: Klucel (hydroxypropylcellulose) (HPC)
  T/C: 100 % of control

## CCC(=O)c1cccc2c(C=O)c(Cl)n(C(=O)CC)c12
dose: 50.0 mg/kg/injection, schedule: Q01DX001 (ip), vehicle: Klucel (hydroxypropylcellulose) (HPC)
  T/C: 100 % of control
dose: 100.0 mg/kg/injection, schedule: Q01DX001 (ip), vehicle: Klucel (hydroxypropylcellulose) (HPC)
  T/C: 100 % of control
dose: 200.0 mg/kg/injection, schedule: Q01DX001 (ip), vehicle: Klucel (hydroxypropylcellulose) (HPC)
  T/C: 101 % of control

## CCOP(=O)(O)SP(=O)(O)OCC.CCOP(=O)(O)SP(=O)(O)OCC.[Co]
dose: 50.0 mg/kg/injection, schedule: Q01DX001 (ip), vehicle: saline
  T/C: 105 % of control
dose: 100.0 mg/kg/injection, schedule: Q01DX001 (ip), vehicle: saline
  T/C: 104 % of control and 111 % of control

## O=S1(=O)CCN(Cc2ccccn2)CC1
[3]
  T/C: 94 % of control
[4]
  T/C: 94 % of control
[5]
  T/C: 91 % of control

## N=C(N)SCc1cccc(-c2nc3ccccc3c(=O)o2)c1
[3]
  T/C: 102 % of control
[4]
  T/C: 113 % of control

## O=c1[nH]c(Cl)nc2nc(Cl)[nH]c12
[14]
  T/C: 100 % of control
[15]
  T/C: 101 % of control
dose: 200.0 mg/kg/injection, schedule: Q01DX005 (ip), vehicle: Klucel (hydroxypropylcellulose) (HPC)
  T/C: 100 % of control

## CC(C)NC(=O)OCc1c(COC(=O)NC(C)C)c(-c2ccc(Cl)c(Cl)c2)n2c1CS(=O)C2 (stereo unspecified)
dose: 12.5 mg/kg/injection, schedule: Q01DX005 (ip), vehicle: Klucel + Tween-80
  T/C: 99 % of control
dose: 25.0 mg/kg/injection, schedule: Q01DX005 (ip), vehicle: Klucel + Tween-80
  T/C: 97 % of control
dose: 50.0 mg/kg/injection, schedule: Q01DX005 (ip), vehicle: Klucel + Tween-80
  T/C: 92 % of control
dose: 100.0 mg/kg/injection, schedule: Q01DX005 (ip), vehicle: Klucel + Tween-80
  T/C: 89 % of control
dose: 200.0 mg/kg/injection, schedule: Q01DX005 (ip), vehicle: Klucel + Tween-80
  T/C: 104 % of control and 89 % of control

## [Cl][Sn]1([c]2ccccc2)[O]CCNCC[O]1
dose: 25.0 mg/kg/injection, schedule: Q01DX009 (ip), vehicle: suspension in saline
  T/C: 97 % of control
[3]
  T/C: 120 % of control
dose: 50.0 mg/kg/injection, schedule: Q01DX009 (ip), vehicle: suspension in saline
  T/C: 109 % of control
dose: 100.0 mg/kg/injection, schedule: Q01DX009 (ip), vehicle: suspension in saline
  T/C: 109 % of control
